We go through 49 molecules from US7666875B2, “Hydantoin compounds” (Eisai R&D Management Co., Ltd., priority 2005, dated 2010).

By IC50 is commonly meant the concentration that gives 50% inhibition.

For the first assay, the target named is T1, human T-bet (Homo sapiens, UniProt Q9UL17).
T1 construct: expressed in transfected cells; host or cells: engineered HEK cells (HEKT-bet)
T1 sequence (Q9UL17 1-535): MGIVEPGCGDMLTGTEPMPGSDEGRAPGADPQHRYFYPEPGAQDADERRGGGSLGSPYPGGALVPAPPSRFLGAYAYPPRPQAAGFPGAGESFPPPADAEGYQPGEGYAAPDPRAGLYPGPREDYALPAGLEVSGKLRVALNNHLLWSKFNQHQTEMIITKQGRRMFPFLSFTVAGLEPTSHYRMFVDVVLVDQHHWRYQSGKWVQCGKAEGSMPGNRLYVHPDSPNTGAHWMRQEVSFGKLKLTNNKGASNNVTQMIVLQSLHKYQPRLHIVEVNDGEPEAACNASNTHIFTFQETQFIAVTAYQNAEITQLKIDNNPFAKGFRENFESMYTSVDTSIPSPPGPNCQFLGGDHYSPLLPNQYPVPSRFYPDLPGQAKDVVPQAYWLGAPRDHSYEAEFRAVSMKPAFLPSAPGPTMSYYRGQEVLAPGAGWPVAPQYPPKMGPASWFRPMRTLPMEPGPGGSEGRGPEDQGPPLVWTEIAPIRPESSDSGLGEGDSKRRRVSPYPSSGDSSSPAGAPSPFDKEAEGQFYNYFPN
The assay can be described thus: HEKT-bet-luc assay (T-bet dependent luciferase reporter in engineered HEK cells). The assay is classed as cell-based. To be noted: Table 3; HEKT-bet cells, compound 24 hours; IC50 normalized to reference ER-213038; read-out: IC50. As for the experimental part: HEKT-bet-luc assay: This assay measures a T-bet dependent reporter (luciferase) activity in engineered HEK cells that express a human T-bet and a T-box responsive element driving luciferase reporter. HEKT-bet cells were plated at 2×10^4/well in 96-well plate and compound was added into cell culture for 24 hours. Luciferase activity was measured by adding 50 μl of Steady-Glo reagent (Promega) and samples were read in Victor V reader (PerkinElmer). The IC50 values were calculated utilizing a maximum value corresponding to the amount of luciferase in the absence of a test compound and a minimum value corresponding to a test compound value obtained at maximum inhibition.
Determination of Normalized HEKT-bet IC50 values: Compounds were assayed in microtiter plates. Each plate included a reference compound which was ER-213038. The un-normalized IC50 value for a particular compound was divided by the IC50 value determined for the reference compound in the same microtiter plate to provide a relative potency value. The relative potency value was then multiplied by the established potency of the reference compound to provide the normalized HEKT-bet IC50 value. […] The IC50 values provided herein were obtained using this normalization method.
In general terms: In a reporter assay the amount or activity of a reporter protein is the signal.
For the molecule `CCOC(=O)CCCCN1C(=O)N(Cc2cccc(OC)c2)C(=O)C12CCN(Cc1ccccc1)CC2` [Example 104], the 50% inhibitory concentration (IC50) came to 1390 nM.

As for `COCCN1C(=O)N(Cc2cccc(OC)c2)C(=O)C12CCN(CC=C(c1ccccc1)c1ccccc1)CC2` [Example 110], the IC50 is 1540 nM.

As to `COCCN1C(=O)N(Cc2cccc(OC)c2)C(=O)C12CCN(Cc1cccc(-c3cccc(O)c3)c1)CC2` [Example 84], the IC50 was 681 nM.

Regarding `COCCN1C(=O)N(Cc2cccc(OC)c2)C(=O)C12CCN(Cc1c(Cl)cccc1Cl)CC2` [Example 87], the IC50 worked out at 782 nM.

On to `COCCN1C(=O)N(Cc2cccc(OC)c2)C(=O)C12CCN(C1CCc3ccc(C)cc31)CC2` (stereo not shown) [Example 106], for which the IC50 came to 1420 nM.

In the case of `COCCN1C(=O)N(Cc2cccc(OC)c2)C(=O)C12CCN(CC(=O)C13CC4CC(CC(C4)C1)C3)CC2` [Example 113], the IC50 was 1650 nM.

For the molecule `COc1cccc(CN2C(=O)N(Cc3cccc4cccnc34)C3(CCN(Cc4cccc5ccccc45)CC3)C2=O)c1` [Example 105], the 50% inhibitory concentration (IC50) was 1390 nM.

With `COCCN1C(=O)N(Cc2cccc(OC)c2)C(=O)C12CCN(Cc1cccc(-c3ccc4[nH]ccc4c3)c1)CC2` [Example 92], the half-maximal inhibitory concentration (IC50) was determined as 868 nM.

As for `COc1cccc(CN2C(=O)N(Cc3ccc(Cl)cc3)C3(CCN(Cc4ccccc4)CC3)C2=O)c1` [Example 116], the IC50 is 1830 nM.

On to `COCCN1C(=O)N(CCCc2ccccc2)C(=O)C12CCN(Cc1ccccc1)CC2` [Example 90], for which the IC50 is 838 nM.

Still in this assay, the particulars now being: Table 4; HEKT-bet cells, compound 24 hours; IC50 normalized to reference ER-213038; read-out: IC50.
With `COCCN1C(=O)N(Cc2cccc(OC)c2)C(=O)C12CCN(Cc1cccc(-c3ccc(O)cc3)c1)CC2` [Example 156], the 50% inhibitory concentration (IC50) was 159 nM.

`O=C1N(C/C=C/c2ccccc2)C(=O)C2(CCN(Cc3cccc4ccccc34)CC2)N1CCn1cccc1` [Example 251]: the IC50 is 447 nM.

For the molecule `COCCN1C(=O)N(Cc2ccc3ccccc3c2)C(=O)C12CCN(Cc1ccccc1)CC2` [Example 263], the IC50 was found to be 498 nM.

For `COCN1C(=O)N(C/C=C/c2ccccc2)C(=O)C12CCN(Cc1cccc3ccccc13)CC2` [Example 206], the IC50 came to 311 nM.

Consider `COCCN1C(=O)N(Cc2cccc(OC)c2)C(=O)C12CCN(Cc1cccc(-c3ccc(S(C)(=O)=O)cc3)c1)CC2` [Example 224], for which the IC50 was 371 nM.

On to `COCCN1C(=O)N(Cc2cccc(OC)c2)C(=O)C12CCN(Cc1ccc(C)cc1C)CC2` [Example 228], for which the IC50 stood at 374 nM.

On to `COCN1C(=O)N(Cc2cc(OC)cc(OC)c2)C(=O)C12CCN(Cc1cccc(OC)c1)CC2` [Example 292], for which the IC50 came to 576 nM.

For the molecule `CCN1C(=O)N(CCCc2ccccc2)C(=O)C12CCN(Cc1cc(OC)cc(OC)c1)CC2` [Example 221], the IC50 is 365 nM.

Turning to `COCCN1C(=O)N(Cc2cccc(OC)c2)C(=O)C12CCN(Cc1ccc3cc(OC)ccc3c1)CC2` [Example 135], the IC50 came to 123 nM.

Consider `COCCN1C(=O)N(Cc2cccc(OC)c2)C(=O)C12CCN(Cc1ccc3ccccc3c1)CC2` [Example 161], for which the IC50 came to 169 nM.

As to `COCCN1C(=O)N(Cc2cccc(OC)c2)C(=O)C12CCN(Cc1cc(OC)c3c(c1)OCO3)CC2` [Example 244], the half-inhibitory concentration (IC50) turned out to be 432 nM.

On to `COc1cc(CN2CCC3(CC2)C(=O)N(Cc2cc(OC)cc(OC)c2)C(=O)N3Cc2ccc3c(c2)nnn3C)cc(OC)c1` [Example 281], for which the IC50 is 548 nM.

As to `CCN1C(=O)N(CCCc2ccccc2)C(=O)C12CCN(Cc1cccc(OC)c1)CC2` [Example 282], the IC50 was 549 nM.

Regarding `COc1cc(CN2CCC3(CC2)C(=O)N(C/C=C/c2ccccc2)C(=O)N3Cc2ccccn2)cc(OC)c1` [Example 143], the IC50 was 134 nM.

Turning to `CCN1C(=O)N(Cc2cccc(OC)c2)C(=O)C12CCN(Cc1cccc(OC)c1)CC2` [Example 279], the IC50 worked out at 546 nM.

In the case of `COc1cccc(CN2C(=O)N(Cc3cccnc3)C3(CCN(Cc4cccc5ccccc45)CC3)C2=O)c1` [Example 173], the IC50 turned out to be 196 nM.

On to `COc1cc(CN2CCC3(CC2)C(=O)N(C/C=C/c2ccccc2)C(=O)N3Cc2cccc3cccnc23)cc(OC)c1` [Example 201], for which the IC50 was 288 nM.

Turning to `COCCN1C(=O)N(Cc2cccc(OC)c2)C(=O)C12CCN(Cc1cccc(Cl)c1)CC2` [Example 235], the IC50 came to 390 nM.

As for `COCCN1C(=O)N(Cc2cccc(OC)c2)C(=O)C12CCN(Cc1cccc3cccnc13)CC2` [Example 242], the IC50 was determined as 424 nM.

`COCCN1C(=O)N(CCCc2ccccc2)C(=O)C12CCN(Cc1cccc(C)c1)CC2` [Example 248]: the concentration for half-maximal inhibition (IC50) came to 438 nM.

As for `COCCN1C(=O)N(Cc2ccc3ccccc3c2)C(=O)C12CCN(Cc1cccc(C)c1)CC2` [Example 162], the IC50 was found to be 172 nM.

For the molecule `CCN1C(=O)N(Cc2cccc(OC)c2)C(=O)C12CCN(Cc1cc(OC)cc(OC)c1)CC2` [Example 167], the IC50 was determined as 187 nM.

As to `CCOc1ccccc1CN1CCC2(CC1)C(=O)N(Cc1cccc(OC)c1)C(=O)N2CCOC` [Example 262], the IC50 is 495 nM.

As for `COc1cccc(CN2C(=O)N(Cc3cccc(OC)c3)C3(CCN(Cc4cccc5ccccc45)CC3)C2=O)c1` [Example 299], the IC50 came out at 596 nM.

`COCCN1C(=O)N(C/C=C/c2ccccc2C)C(=O)C12CCN(Cc1ccccc1)CC2` [Example 226]: the IC50 came out at 373 nM.

`COCCN1C(=O)N(Cc2cc(F)cc(F)c2)C(=O)C12CCN(Cc1cc(OC)cc(OC)c1)CC2` [Example 253]: the IC50 is 450 nM.

Take `COCCN1C(=O)N(Cc2cccc(OC)c2)C(=O)C12CCN(Cc1cccc(OC)c1)CC2` [Example 239]: the IC50 was determined as 417 nM.

With `COCCN1C(=O)N(Cc2cccc(OC)c2)C(=O)C12CCN(Cc1c(F)cccc1OC)CC2` [Example 268], the IC50 is 511 nM.

On to `COCCN1C(=O)N(Cc2cccc(OC)c2)C(=O)C12CCN(Cc1cc(C)c(C)cc1C)CC2` [Example 139], for which the IC50 turned out to be 125 nM.

With `O=C1N(/C=C/Cc2ccccc2)C(=O)C2(CCN(Cc3cccc4ccccc34)CC2)N1CCO` [Example 294], the IC50 was found to be 579 nM.

Consider `COCCN1C(=O)N(Cc2cccc(OC)c2)C(=O)C12CCN(Cc1cc(OC)ccc1F)CC2` [Example 255], for which the IC50 was determined as 452 nM.

Take `COCCN1C(=O)N(Cc2cc(OC)cc(OC)c2)C(=O)C12CCN(Cc1cccc(OC)c1)CC2` [Example 237]: the IC50 came out at 414 nM.

As for `COc1cc(CN2CCC3(CC2)C(=O)N(Cc2cc(OC)cc(OC)c2)C(=O)N3Cc2ccncc2)cc(OC)c1` [Example 145], the IC50 stood at 139 nM.

`COCCN1C(=O)N(C/C=C/c2cccc(C)c2)C(=O)C12CCN(Cc1ccccc1)CC2` [Example 205]: the IC50 turned out to be 298 nM.

`COCCN1C(=O)N(Cc2ccc(OC(F)(F)F)cc2)C(=O)C12CCN(Cc1ccccc1)CC2` [Example 236]: the IC50 worked out at 395 nM.

As for `COc1cccc(CN2C(=O)N(CCn3cccc3)C3(CCN(Cc4cccc5ccccc45)CC3)C2=O)c1` [Example 211], the IC50 was 334 nM.

For the molecule `CCN1C(=O)N(Cc2cccc(OC)c2)C(=O)C12CCN(Cc1cccc3ccccc13)CC2` [Example 168], the IC50 amounted to 190 nM.

On to `COCCN1C(=O)N(Cc2cccc(OC)c2)C(=O)C12CCN(Cc1cc(OC)c(Cl)cc1F)CC2` [Example 270], for which the IC50 worked out at 518 nM.

Regarding `COCCN1C(=O)N(Cc2cccc(OC)c2)C(=O)C12CCN(Cc1cccc(C)c1C)CC2` [Example 134], the IC50 was 120 nM.
